{"source": "patent US20240382487A1", "about": "“NOVEL COPI/ARF1-LIPOLYSIS PATHWAY INHIBITOR AND COMPOUND FOR ERADICATING CANCER STEM CELLS AND INDUCING DAMP-MEDIATED ANTI-TUMOR IMMUNE RESPONSE” (FUDAN UNIVERSITY, priority 2020, published 2024)", "key": {"tumor cells": {"test_system": "tumor cells", "experiment": "Tumor cytotoxicity experiments in vitro (all lines, general statements)", "format": "cell-based", "conditions": "HT29, LoVo, Huh7, H460, A549; FIG. 2-7", "excerpt": "In different tumor cytotoxicity experiments in vitro (FIG. 2-FIG. 7), including colorectal cancer cell lines HT29 and LoVo cells, liver cancer cell Huh7, lung cancer cells H460 and A549, the arf1 inhibitor could all inhibit tumor cell growth (FIG. 2-FIG. 6), and there was a dose-dependent manner (FIG. 7)."}, "[1]": {"test_system": "liver tumors in MYC-ON mice", "experiment": "MYC-ON liver tumor model", "format": "in vivo", "excerpt": "We used the Tet system to generate transgenic mice conditionally expressing the myc pro-oncogene in hepatocytes, […] myc/lap TTA (lt2-myc) (shachaf et al., 2004). We crossed tre-myc mice with a transgenic line, lap TTA. in which the liver activator protein (LAP) promoter drives the expression of tetracycline trans-activator protein (TTA) in hepatocytes. We confirmed this by discontinuing the feeding of doxycycline (myc-ON) activated myc transgene expression in 3-week-old mice. Subsequently. all transgenic mice overexpressing myc succumbed to liver tumors with a mean latency to tumor onset of 12 weeks, as previously reported (shachaf et al., 2004). In this lap TTA/tet-off myc conditional transgenic mouse model, myc overexpression in adult mice reproducibly induces liver cancer, similar to hepatocellular carcinoma and/or hepatoblastoma. The transgenic tumor invades the entire liver locally and is frequently associated with malignant peritoneal effusions that spread to the thoracic cavity by metastasis and invade the lung parenchyma.\nFor the mouse liver tumor model, mating cages and weaning cages were administrated by a grain based rodent diet (Bio-Serv. Cat #14-727-450) containing 200 mg/kg doxycycline, and the mice were induced tumors at 6 weeks of age, by changing to a normal diet. Mice were divided into three groups, control, Du 101 treated and du102 treated. The control group was given 100 by gavage using a feeding tube 100 μl/10 g body weight (BW) 20% DMSO+80% corn oil. Du 101 treated groups were treated with 25 mg/ml Du 101. The stock solution was diluted 1:4 with corn oil to make the working solution. Dul02 treatment groups were treated with 25 mg/ml du102 stock solution diluted 1:4 with corn oil to make working solutions. The mixed working solution was administered to mice by gavage using a feeding tube. Starting from the second week of myc-0n, 5 injections per week ([…]) were given for 4 weeks, mice were monitored every 2 days, and 10 weeks later mice were euthanized and analyzed for tumor growth.\nFor the myc-on liver tumor model, antibodies were i.p. Mg/kg) was injected once a week for 5 consecutive weeks, the first Doxycycline was discontinued weekly after injection. Antibodies used to treat mice were as follows: anti-CD4 (clone GK1.5, BioXcell, Cat #BE0003-1), anti-CD8 a (clone 2.43, BioXcell, Cat #BE0061) Or […] rat IgG (bioxcell, cat #be0094) isotype control antibody. From the second week of myc-on initiation lasted for 4 weeks, Du 102 and DMSO were administered by gavage needle as described above, mice were monitored every 2 days, and 10 weeks later mice were euthanized and analyzed for tumor growth.\nFor the myc-on liver tumor model, antibodies were i.p. Injection once a week for 5 weeks, and doxycycline was discontinued weekly after the first injection. Antibodies used to treat mice were as follows: 100 ug/mouse Armenian hamster anti mouse PD1 (J43, bioxcell, cat #be0033-2) and 100 ug/mouse Armenian hamster isotype IgG (bioxcell. cat #bp0091) was used as controls. For 4 weeks from the second week of myc-on, Du 102 and DMSO were administered by gavage needle as described above, mice were monitored every 2 days. and 10 weeks later mice were euthanized and analyzed for tumor growth. Coadministration of anti-PD-1 antibodies may allow the use of lower, less toxic doses of du102, thus avoiding known side effects."}, "B16-F10 melanoma": {"test_system": "B16-F10 melanoma", "experiment": "Lung metastasis of B16-F10 melanoma after tail vein injection", "format": "in vivo, C57B/6 mice", "conditions": "B16-F10 cells treated with 10 μM Du 102, tail vein injection; lungs removed 15 days after injection", "procedure": "B16-f10 tumor cells (treated with DMSO or 10 μM Du 102 treatment) was transferred intravenously via tail vein injection. Lungs were removed 15 days after injection and fixed in fekete's solution overnight. Three investigators in a blinded manner statistically available (Table 17)."}}, "data": [{"substance": "1H-indolo-5-carbaldehyde 5,6,7,8,9,10-hexahydrocycloocta[4,5]thieno[2,3-d]pyrimidin-4-ylhydrazone [Du 102]", "values": [{"measurement": "tumor suppressive / inhibitory effect on tumor cells", "setting": "tumor cells", "result": "Some Tumor Suppressive Effect"}, {"measurement": "survival time of myc-on mice", "setting": "[1]", "result": "prolonged the survival time"}, {"measurement": "anti-tumor effects (liver tumors)", "setting": "[1]; Du102 + Anti-CD4", "result": 69.5}, {"measurement": "anti-tumor effects (liver tumors)", "setting": "[1]; Du102 + Anti-CD4/CD8", "result": 89.7}, {"measurement": "number of tumors", "setting": "[1]; Du102 + Anti-PD-1", "result": 4.4}, {"measurement": "anti-tumor effects (liver tumors)", "setting": "[1]; Du102 + Isotype, Table 18", "result": 27.5}, {"measurement": "number of tumors", "setting": "[1]; Du102 + Isotype, Table 19", "result": 42.3}, {"measurement": "liver tumor numbers", "setting": "[1]; gavage, 5 per week for 4 weeks, analyzed 10 weeks later", "result": 26.7}, {"measurement": "lung metastases (surface tumor number)", "setting": "B16-F10 melanoma", "result": 5}]}]}
